In the NIST ThermoML archive (doi:10.1016/j.tca.2017.09.013):
Numbers after ± are expanded uncertainties.

How the values were obtained:
[1] = molar heat capacity at constant pressure; conditions: 101.33 kPa, Metastable liquid, Small sample (50 mg) DSC
[2] = Molar enthalpy of transition or fusion; conditions: Crystal; DSC

Structure (SMILES)	molar heat capacity at constant pressure ([1]; 408 K)	molar heat capacity at constant pressure ([1]; 413 K)	molar heat capacity at constant pressure ([1]; 418 K)	molar heat capacity at constant pressure ([1]; 423 K)	molar heat capacity at constant pressure ([1]; 428 K)	Molar enthalpy of transition or fusion [2]	Normal melting temperature (Crystal, DTA)	Glass transition temperature (Glass, DSC)
Nc1cc[nH]c(=O)n1 [4-amino-2-hydroxypyrimidine]	268 ± 36 J/K/mol	269 ± 38 J/K/mol	271 ± 40 J/K/mol	272 ± 42 J/K/mol	274 ± 44 J/K/mol	8.34 ± 0.55 kcal/mol	334 ± 3 °C	115 ± 3 °C
c1ccc2cc3ccccc3cc2c1 [anthracene]	–	–	–	–	–	6.52 ± 0.693 kcal/mol	–	–
